Measured values from patent publication EP0771560A1, “Use of 2- N-(1,2-benzoisothiazolyl-3(2H)one-1,1-dioxide ethyl 5-ethoxycarbonyl-2,4,6-trimethyl-1,4-dihydropiridine-3-carboxylate in the treatment of vascular disorders” (LABORATORIOS ALTER, S.A., priority 1995, dated 1997).
Like-named read-outs stand apart in the source and are kept apart here.

Legend:
[1] = system: A10 cells; assay: Inhibition of smooth muscle cell proliferation induced by bovine fetal serum (DNA synthesis by inclusion of BrdU); format: cell-based, rat; conditions: for inhibition at 50 µM / inhibition at 0.5 µM / inhibition at 5 µM: Rattus norvegicus; for % LABELED CELLS (Average ± S.D.): 10% bovine fetal serum, BrdU inclusion
Procedure: In these experiments a rat aorta smooth muscle cell line obtained from American Type Culture Collection (ATCC;A10 CRL 1476) was used. The cells were grown in a humidified atmosphere (37^º C; 95% air - 5% CO2) in Dulbecco's Modified Eagle Medium (DMEM) containing 10 % bovine fetal serum supplemented with 20 mM L-glutamine, 100 IU/ml penicillin, 100 µg/ml streptomycin and 0.25 µg/ml Amphotericin B (antibiotic-antimycotic solution, Gibco). The medium was replaced every two days.
To study the effect of PCA-4230 and of the other compounds, the DNA synthesis was measured by deterimining the inclusion of BrdU (an analogue of thymidine). The cells were isolated by trypsinization (trypsin 0.05% in EDTA 0.02%) and were seeded on glass cover-glasses in culture plates of 24 cups, at a density of 10^4 cells per cup. The cells were grown for 24 hours in DMEM with 10% BFS to allow adhesion of the cells to the slides. Afterwards, the cells were washed with serum-free DMEM containing 0.2% bovine serum albumin (BSA). They were incubated for 48 hours in the same medium to obtain quiescent cells. Afterwards, proliferation was induced by replacement of the medium by DMEM containing 10% bovine fetal serum, along with the vehicle or drugs at the suitable concentrations (0.5 to 50 µM for PCA-4230 and 50 µM for the rest of the compounds): The cells were grown in these conditions for 16 hours and, afterwards, BrdU was added and the culture was continued for two to three hours.

[2] = system: smooth muscle cells; conditions: from J. Bernhardt et al. (1993); cited from earlier work
[3] = system: atheromatous smooth muscle cells (ASA); assay: Intracellular communication: transference of Lucifer Yellow dye after microinjection, atheromatous cells; format: cell-based, human; conditions: 0.4 µM (200 ng/ml for PCA-4230), incubated for 1 hour
Text: (§1) Materials and Methods. Non-arteriosclerotic aorta smooth muscle cells (NASA), obtained from biopsies of organs to be used in heart transplants were used. The atheromatous smooth muscle cells (ASA) were obtained from biopsies obtained from arteriosclerotic arteries coming from aorta reconstruction. These biopsies were used as a source for cultures by explant, avoiding the use of enzymatic additives or detergents. The cells were left to grow until confluence, in M199 medium, supplemented with 5% BFS and antibiotics as in the previous example. The pureness of the cultures was determined by specific staining of the same with anti-α actin of smooth muscle cells.
(§2) Intracellular communication was studied by evaluating the transference of the fluorescent dye Lucifer Yellow from a single cell, in which it is inserted by microinjection, to the surrounding cells. The extent of this transference of dye was determined in 40 normal cells and in 100 atheromatous cells.
(§3) The same experiment was carried out with Verapamyl 0.4 µM, used as a standard drug with calcium antagonist activity and with 0.02% dimethylsulfoxide, the vehicle used in both cases.
(§4) The same study was repeated with the vehicle and with Verapamyl.

[4] = system: c-fos and c-jun proto-oncogenes; assay: Expression of c-fos and c-jun proto-oncogenes (Northern hybridization of total RNA) in serum-stimulated cells; format: cell-based, rat; conditions: 5x10^-5M; cells stimulated for 30 minutes with 10% FCS; result in words
Procedure: The expression of the c-fos and c-jun proto-oncogenes was analyzed in cells fasted for 48h (cultured in serum-free DMEM, containing BSA 0.2%) and subsequently stimulated for 30 minutes with 10% FCS in the presence of absence of PCA-4230 (5x10^-5M). The total RNA was extracted from said cells using a previously described method (P Chomczynski and N. Sacchi (1987), Ann. Biochem. 162: 156-159).
Immediately, the extracted RNA (10 µg) was resolved by eletrophoresis in agarose gel (1.2% agarose + formaldehyde + formamide). The gel was then transferred to a nylon membrane and this was hybridized with specific probes for c-fos and c-jun (previously labeled with [^32P]-deoxy CTP). The membrane was finally exposed to a sensitive film (Kodak X-OMAT) for 8-17 hours at -70^º C. The level of expression of the oncogenes was brought back to normal by using a specific probe for β-actin.

[5] = system: Non-arteriosclerotic aorta smooth muscle cells (NASA); assay: Intracellular communication: transference of Lucifer Yellow dye after microinjection, normal cells; format: cell-based, human; conditions: NORMAL (HEALTHY) cells, 0.4 µM, incubated for 1 hour
Text: as §1, §2, §3, §4

[6] = system: gap junctions; assay: Freeze Fracture Electron Microscopy (FFEM) of gap junction morphology; format: cell-based, human; conditions: cells treated with PCA-4230, result in words
Text: Subsequently, the cells were fixed with glutaraldehyde and were studied by FFEM "Freeze Fracture Electron Microscopy" to determine the morphology of the gap junctions. The cells were frozen at -110^º C and were fractured. The breakage planes are the planes with less resistance that correspond to the surface of the inside membrane, between lipid bilayers.

[7] = Phase II Clinical Trial, Internal Report; result in words; cited from earlier work
[8] = A10, Table Ib, 50,0 µM/L, versus vehicle, read-out: % INHIBITIÓN
[9] = Table Ib, 50,0 µM/L, two experiments in triplicate
[10] = Table Ib, 50,0 µM/L, versus vehicle

Clc1ccccc1CN1CCc2sccc2C1 [THICLOPYD., Thiclopydine, reference compound]
inhibition at 50 µM [1, 8]: 17.1% | % LABELED CELLS (Average ± S.D.) [1, 9]: 24,7 ± 1,5% | % INHIBITIÓN [1, 10]: weak inhibitory effect

CC(=O)Oc1ccccc1C(=O)O [ASPIRIN, aspirin, reference compound]
inhibition at 50 µM ([1]; A10, read-out: % INHIBITIÓN): 25.5% | % LABELED CELLS (Average ± S.D.) [1, 9]: 22.2 ± 1,8% | % INHIBITIÓN [1, 10]: weak inhibitory effect | aspirin concentrations at which inhibition of the proliferation of smooth muscle cells is achieved [2]: higher than 270 µM

COc1ccc(CCN(C)CCCC(C#N)(c2ccc(OC)c(OC)c2)C(C)C)cc1OC (stereo not drawn) [VERAPAMYL, Verapamyl, reference compound]
N° CELLS LABELED BY INJECTION [3]: 7,20 ± 0,54 | N° CELLS LABELED BY INJECTION ([3]; listed as Verapamyl): did not show any significant effects

CCOC(=O)C1=C(C)NC(C)=C(C(=O)OCCN2C(=O)c3ccccc3S2(=O)=O)C1C (stereo not drawn) [PCA-4230]
cell proliferation induced by bovine fetal serum ([1]; 0.5 to 50 µM, result in words): inhibited cell proliferation induced by bovine fetal serum proportionally to the concentration | inhibition at 0.5 µM ([1]; A10, Table Ia, 0,5 µM/L, versus vehicle, read-out: % INHIBITIÓN): 26.1% | inhibition at 5 µM ([1]; A10, Table Ia, 5,0 µM/L, versus vehicle, read-out: % INHIBITIÓN): 53.2% | inhibition at 50 µM ([1]; A10, Table Ia, 50,0 µM/L, versus vehicle, read-out: % INHIBITIÓN): 95.1% | inhibition at 0.5 µM ([1]; A10, Table Ib, 0,5 µM/L, versus vehicle, read-out: % INHIBITIÓN): 25% | inhibition at 5 µM ([1]; A10, Table Ib, 5,0 µM/L, versus vehicle, read-out: % INHIBITIÓN): 57.4% | inhibition at 50 µM [1, 8]: 87.9% | % LABELED CELLS (Average ± S.D.) ([1]; Table Ia, 0,5 µM/L, three experiments in triplicate): 15,0 ± 2,3% | % LABELED CELLS (Average ± S.D.) ([1]; Table Ia, 5,0 µM/L, three experiments in triplicate): 9,5 ± 1,1% | % LABELED CELLS (Average ± S.D.) ([1]; Table Ia, 50,0 µM/L, three experiments in triplicate): 1,0 ± 0,6% | % LABELED CELLS (Average ± S.D.) ([1]; Table Ib, 0,5 µM/L, two experiments in triplicate): 22,3 ± 0,9% | % LABELED CELLS (Average ± S.D.) ([1]; Table Ib, 5,0 µM/L, two experiments in triplicate): 12,7 ± 1,4% | % LABELED CELLS (Average ± S.D.) [1, 9]: 3,6 ± 0,3% | transcription of the c-fos and c-jun proto-oncogenes [4]: suppressive effect | N° CELLS LABELED BY INJECTION [3]: 2.42 ± 0.34 | N° CELLS LABELED BY INJECTION [5]: 2,40 ± 0,18 | morphology, distribution and number of the gap junctions [6]: No differences were observed | hypolipidemic effect [7]: moderate hypolipidemic effect
